Among the test systems are A498; CAKI-1; COLO 205; HCT-15; HOP-62; HOP-92; HT-29; IGROV-1; K562; M14; MCF7; NCI-H460; NCI-H522; RPMI-8226; RXF 393; SK-OV-3; SN12C; SNB-75; T47D; UO-31.
Holding throughout (test): DTP human tumour cell line panel, 48 h

Each structure is given as a SMILES string.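 Grown in 96-well plates, cells were treated for 48 hours with each compound at five concentrations. Insufficient inhibition: endpoint recorded as highest concentration tested. GI50: concentration for 50% inhibition of growth.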 The source made the active and inactive calls. Rule as the data show it: active = GI50 up to about 1.1 µM and inactive = higher.

The values that follow come from ChEMBL document CHEMBL1201862, “PubChem BioAssay data set” (2004).

A word on the GI50: it is the concentration at which growth is held to half of that of the control. In the case of `O=C1C2CCCCC2C(=O)N1n1c(Cc2ccc(Cl)cc2)n[nH]c1=O` (stereo unspecified), the GI50 in the assay on A498 was > 100 µM (inactive); with CAKI-1 it was > 100 µM (inactive); in the assay with COLO 205, > 100 µM (inactive); in the assay on HCT-15, greater than 100 µM; with HOP-62, > 100 µM (inactive); in the assay on HOP-92, > 100 µM (inactive). Further, the GI50 in the assay on HT-29, with IGROV-1, in the assay with K562, in the assay on M14, with MCF7 and in the assay on NCI-H460 was > 100 µM (inactive) throughout. Also, the GI50 in the assay with NCI-H522, in the assay on RPMI-8226, in the assay on RXF 393, in the assay on SK-OV-3, with SN12C and in the assay on SNB-75 was > 100 µM (inactive) throughout. Further, the GI50 in the assay on T47D and with UO-31 was > 100 µM (inactive) each time.
`O=C1C=Cc2c(Br)sc(Br)c21`: the GI50 in the assay on A498 is > 100 µM (inactive); in the assay with CAKI-1, 19.6 µM (inactive); in the assay on COLO 205 it was 34.2 µM (inactive); with HCT-15 it was 26.2 µM; in the assay on HOP-62 it was 29.8 µM (inactive); in the assay with HOP-92, 24.7 µM (inactive). For the same molecule, the GI50 in the assay on HT-29 is 28.2 µM (inactive); in the assay on IGROV-1, 18.6 µM (inactive); in the assay on K562, 23 µM (inactive); with M14, 25.9 µM (inactive); in the assay on MCF7, 19.3 µM (inactive); in the assay on NCI-H460 it was 32.3 µM (inactive). The GI50 is 26.1 µM (inactive) in the assay on NCI-H522; 10.3 µM (inactive) in the assay with RPMI-8226; 24.3 µM (inactive) in the assay on RXF 393; 88.1 µM (inactive) with SK-OV-3; 39.8 µM (inactive) with SN12C; 90.4 µM (inactive) in the assay with SNB-75. Moreover, the GI50 was 34 µM (inactive) with T47D and 17.7 µM (inactive) in the assay on UO-31.
As to `O/N=C(/CC(O)(C(F)(F)F)C(F)(F)F)c1ccccc1`, the GI50 with A498 is > 10 µM (inactive); in the assay on CAKI-1, > 10 µM (inactive); with COLO 205, > 10 µM (inactive); with HCT-15 it was greater than 10 µM; in the assay with HOP-62 it was > 10 µM (inactive); with HOP-92, > 10 µM (inactive). For the same molecule, the GI50 with HT-29, with IGROV-1, in the assay with K562, with M14, with MCF7 and in the assay on NCI-H460 was > 10 µM (inactive) each time. The GI50 in the assay with NCI-H522, in the assay with RPMI-8226, with RXF 393, with SK-OV-3, with SN12C and in the assay on SNB-75 was > 10 µM (inactive) in each case. For the same molecule, in the assay on T47D, the GI50 was > 10 µM (inactive).
Turning to `CSc1c(CC(=O)Nc2ccc(Cl)cc2)n(Cc2ccccc2)c2ccccc12`, the GI50 was 8.26 µM (inactive) in the assay on A498; 22.8 µM (inactive) in the assay with CAKI-1; 44.6 µM (inactive) in the assay with COLO 205; 30.5 µM in the assay with HCT-15; 21.2 µM (inactive) in the assay on HOP-62; 13.7 µM (inactive) with HOP-92. Also, the GI50 in the assay with HT-29 is 39.4 µM (inactive); in the assay with IGROV-1 it was 26.5 µM (inactive); in the assay on K562, 28 µM (inactive); in the assay with M14 it was 58.2 µM (inactive); in the assay with MCF7, 18.6 µM (inactive); with NCI-H460, 25.5 µM (inactive). In addition, the GI50 in the assay with NCI-H522 is 18.1 µM (inactive); with RPMI-8226, 67.5 µM (inactive); with RXF 393, 12.8 µM (inactive); in the assay on SK-OV-3 it was 41.4 µM (inactive); with SN12C, 32 µM (inactive); in the assay on SNB-75, 13 µM (inactive). Besides, the GI50 with T47D is 12.1 µM (inactive); in the assay on UO-31, 34.3 µM (inactive).
As to `COc1ccc(Cl)cc1NC(=O)O/N=C(\Cl)C(C)C`, the GI50 in the assay on A498 is 21.5 µM (inactive); in the assay with CAKI-1 it was 1.82 µM (inactive); in the assay on COLO 205, 2.19 µM (inactive); with HCT-15, 2.64 µM; in the assay with HOP-62, 18.4 µM (inactive); in the assay on HOP-92, 1.97 µM (inactive). The GI50 was 16.4 µM (inactive) in the assay on HT-29; 12.2 µM (inactive) in the assay on IGROV-1; 1.98 µM (inactive) in the assay with K562; 3.28 µM (inactive) in the assay on M14; 6.71 µM (inactive) in the assay with MCF7; 17.1 µM (inactive) in the assay with NCI-H460. Besides, the GI50 in the assay with NCI-H522 is 0.752 µM (active); in the assay with RPMI-8226 it was 2.06 µM (inactive); in the assay on RXF 393 it was 3.76 µM (inactive); in the assay with SK-OV-3, 18.7 µM (inactive); in the assay with SN12C it was 8.49 µM (inactive); in the assay with SNB-75 it was 16.4 µM (inactive). In addition, the GI50 in the assay with T47D is 3.38 µM (inactive); in the assay on UO-31, 13.8 µM (inactive).
Take `CCOC(=O)C1=C(N2CCCC2)C(=O)C(C(=O)OCC)C1` (stereo unspecified): the GI50 in the assay with A498 was > 100 µM (inactive); in the assay with CAKI-1, > 100 µM (inactive); in the assay on COLO 205, > 100 µM (inactive); in the assay on HCT-15, greater than 100 µM; in the assay with HOP-62 it was > 100 µM (inactive); in the assay on HOP-92 it was > 100 µM (inactive). In addition, the GI50 in the assay with IGROV-1, in the assay with K562, in the assay with M14, in the assay on MCF7, with NCI-H460 and with NCI-H522 was > 100 µM (inactive) in each case. Further, the GI50 in the assay with RPMI-8226, in the assay on RXF 393, in the assay with SK-OV-3, in the assay on SN12C, with SNB-75 and with T47D was > 100 µM (inactive) each time. Also, the GI50 with UO-31 is > 100 µM (inactive).
For the molecule `C/C(=N\C1CCCCC1)c1ccccc1O`, the GI50 in the assay on A498 was > 100 µM (inactive); in the assay on CAKI-1 it was > 100 µM (inactive); in the assay with COLO 205, > 100 µM (inactive); in the assay with HCT-15, greater than 100 µM; in the assay with HOP-62, > 100 µM (inactive); in the assay with HOP-92, > 100 µM (inactive). For the same molecule, the GI50 in the assay with HT-29, with IGROV-1, with K562, in the assay with M14, in the assay on MCF7 and in the assay with NCI-H460 was > 100 µM (inactive) in each case. For the same molecule, the GI50 in the assay on NCI-H522 was 34.2 µM (inactive); with RPMI-8226, 87.5 µM (inactive); with RXF 393 it was > 100 µM (inactive); in the assay on SK-OV-3 it was > 100 µM (inactive); in the assay on SN12C it was > 100 µM (inactive); in the assay with SNB-75, 57.5 µM (inactive). Moreover, the GI50 in the assay on T47D and in the assay on UO-31 was > 100 µM (inactive) in each case.
`COCc1nc2c(OC)c(-c3nc4ccc(N5CCN(C)CC5)cc4[nH]3)cc(OC)c2[nH]1`: the GI50 in the assay on A498 is > 100 µM (inactive); in the assay with CAKI-1, 41.7 µM (inactive); in the assay with COLO 205, 25.6 µM (inactive); in the assay on HCT-15, 56.1 µM; with HOP-62 it was 32.4 µM (inactive); in the assay on HOP-92, > 100 µM (inactive). The GI50 in the assay with HT-29 is 31.5 µM (inactive); in the assay on IGROV-1 it was 97.9 µM (inactive); with K562, 38.8 µM (inactive); in the assay with M14 it was 17.4 µM (inactive); in the assay with MCF7, 35.6 µM (inactive); with NCI-H460, 36.7 µM (inactive). Further, the GI50 was 31.1 µM (inactive) in the assay on NCI-H522; 32.1 µM (inactive) in the assay on RPMI-8226; 14.3 µM (inactive) with RXF 393; 52.1 µM (inactive) in the assay with SK-OV-3; 43.9 µM (inactive) in the assay on SN12C; 4.3 µM (inactive) in the assay with SNB-75. The GI50 with T47D is 65.2 µM (inactive); in the assay on UO-31, 31.2 µM (inactive).
Consider `CC1=Nc2ccccc2/C1=C\c1c(C)[nH]c2ccccc12`, for which the GI50 is 17.5 µM (inactive) in the assay on A498; 13.8 µM (inactive) in the assay with CAKI-1; 19.1 µM (inactive) in the assay with COLO 205; 12.9 µM in the assay on HCT-15; 23.2 µM (inactive) with HOP-62; 3.73 µM (inactive) in the assay on HOP-92. In addition, the GI50 is 12.8 µM (inactive) with HT-29; 12.5 µM (inactive) in the assay on IGROV-1; 7.21 µM (inactive) in the assay with K562; 23.2 µM (inactive) in the assay with M14; 4.49 µM (inactive) in the assay with MCF7; 17.8 µM (inactive) in the assay on NCI-H460. Moreover, the GI50 in the assay with NCI-H522 is 10 µM (inactive); with RPMI-8226, 16.3 µM (inactive); in the assay with RXF 393, 10.6 µM (inactive); with SK-OV-3, 15.6 µM (inactive); in the assay with SN12C it was 21.4 µM (inactive); in the assay with SNB-75, 18.7 µM (inactive). Besides, the GI50 in the assay with T47D was 9.53 µM (inactive); in the assay on UO-31, 13.6 µM (inactive).
As to `CCCNC(=O)N(C)C(=O)N1N=C(c2ccccc2)C1c1ccccc1` (stereo unspecified), the GI50 was > 100 µM (inactive) with A498; 75.3 µM (inactive) with CAKI-1; 54.2 µM (inactive) in the assay with COLO 205; 45.3 µM in the assay with HCT-15; > 100 µM (inactive) in the assay with HOP-62; 62.4 µM (inactive) in the assay on HOP-92. Further, the GI50 was 78.7 µM (inactive) in the assay on IGROV-1; 49 µM (inactive) with K562; > 100 µM (inactive) with M14; > 100 µM (inactive) in the assay with MCF7; 62.4 µM (inactive) in the assay with NCI-H522; 38.2 µM (inactive) with RPMI-8226. For the same molecule, the GI50 in the assay on RXF 393 was > 100 µM (inactive); in the assay with SK-OV-3, > 100 µM (inactive); with SN12C, 37 µM (inactive); in the assay on SNB-75, 54.3 µM (inactive); with T47D, > 100 µM (inactive); with UO-31, 50.4 µM (inactive).
